The text below walks through data of patent publication US8030547B2, “Gene coding for acetolactate synthase” (priority 2002, dated 2011).

For experiment [1], the system named is mutant ALS protein of Vg line. The experiment is described as follows: Herbicide sensitivity of partially purified ALS protein (ALS activity inhibition), Vg line. The format is biochemical, Oryza sativa var. Kinmaze. The conditions noted are these: I50 of the resistant mutant divided by I50 of the wild type. The procedure:
(§1) First, 200 g or more of resistant mutant was prepared by a liquid culture method (no supplementation with bispyribac-sodium), using a composition as shown in Table 3 excluding Gelrite. Then, about 150 g of the resistant mutant was homogenized using Hiscotron in a volume of buffer-1 [100 mM potassium phosphate buffer (pH 7.5) containing 20% (v/v) glycerol, […] thiamin pyrophosphate (TPP), 10 μM flavin adenine dinucleotide (FAD), 0.5 mM MgCl2, and a volume of polyvinyl polypyrrolidone one-tenth that of tissue volume] 3-fold greater than tissue volume. The homogenate was filtered through nylon gauze, and then centrifuged at 15000×g for 20 minutes. Ammonium sulfate was added to the centrifuged supernatant to 50% saturation, and then allowed to stand in ice for approximately 1 hour. The mixture was again centrifuged at 15000×g for 20 minutes, and then the precipitated fraction was dissolved in approximately 30 ml of buffer-2 [10 mM Tris hydrochloric acid buffer (pH 7.5) containing 20% (v/v) glycerol, 0.5 mM TPP and 0.5 mM MgCl2]. The mixture was again centrifuged at 15000×g for 20 minutes, and then the supernatant fraction was applied to a Sephadex G-25 (Amersham Bioscience). About 40 ml of the fraction that had passed through the column was collected as a crude enzyme solution.
(§2) Next, the protein concentration of the crude enzyme solution was measured by the Bradford method according to the manual of Bio-Rad Protein Assay. The crude enzyme solution was then filtered through a Whatman filter (Whatman), and then the crude enzyme solution in an appropriate protein amount (10 to 15 ml) was applied to three vertically-connected HiTrap Q columns (Amersham Bioscience) using a FPLC device (Amersham Bioscience). After protein component was adsorbed using HiTrap Q, unadsorbed fractions were washed out using buffer-2 having a volume 3 to 5 fold greater than the bed volume. Then, the adsorbed protein component was eluted using an eluate having a volume 10 fold greater than the bed volume (150 ml). Here, the eluate was prepared by dissolving KCl with a linear concentration gradient (0 to 0.4 M) into buffer-2. The eluate containing the eluted protein component was apportioned, 5 ml each, into a plurality of test tubes for apportioning. Further, to stabilize ALS protein contained in the eluted protein component, 0.5 ml of buffer-2 containing 20 mM sodium pyruvate had been previously added to each test tube for apportioning.
(§3) ALS activity resulting from the mutant ALS protein contained in the eluted fractions apportioned into each test tube for apportioning was measured as follows. A reaction solution to be used in a measurement reaction was prepared by mixing an eluted fraction to be measured with a solution comprising 20 mM sodium pyruvate, 0.5 mM TPP, 0.5 mM MgCl2, 10 μM FAD and 20 mM potassium phosphate buffer (pH 7.5). One ml of this reaction solution was used. After the eluted fraction to be measured was added, the measurement reaction was performed at 30° C. for 40 to 60 minutes. Then, the reaction was stopped by addition of 0.1 ml of 6N sulfuric acid (or 0.25 N sodium hydroxide).
(§4) After the reaction was stopped, the reaction solution was incubated at 60° C. for 10 minutes, thereby converting acetolactate contained in the reaction solution to acetoin.
(§5) Then, to quantify acetoin contained in the reaction solution, 1 ml of 0.5% (w/v) creatine and 1 ml of 5% (w/v) α-naphthol dissolved in 2.5 N sodium hydroxide was added to the reaction solution, followed by incubation at 37° C. for 10 minutes. Acetoin was then quantified by color comparison of the absorbance (at 525 nm) of the reaction solution, thereby evaluating ALS activity. In addition, since the reaction solution contained a small amount of sodium pyruvate, reaction time 0 was used as control.
(§6) Using the enzyme solution containing the mutant ALS protein, sensitivity of the mutant ALS protein to bispyribac-sodium, chlorsulfuron and imazaquin was examined. […]

Experiment [2] addresses T1, mutant ALS protein of Vg line (Oryza sativa subsp. japonica, UniProt Q6K2E8).
T1 construct: other: partially purified ALS, 30° C., probit analysis
The experiment is described as above. The experiment is classed as biochemical, Oryza sativa var. Kinmaze. The conditions noted are these: read-out: I50 (nM) Vg; partially purified ALS, 30° C., probit analysis. As to the method: as §1, §2, §3, §4, §5, §6

The target of experiment [3] is T2, GST fusion S627I mutant ALS protein (Oryza sativa subsp. japonica, UniProt Q6K2E8, S627I).
T2 construct: an expression vector having the full-length wild type ALS cDNA incorporated into the Eco RI site of pGEX-2T; made in house; host or cells: E. coli JM109, pGEX 2T(ALS-S627I mutant); crude supernatant
In words: Herbicide sensitivity of ALS protein expressed in E. coli (crude enzyme solution), S627I. The experiment is classed as biochemical, rice (Oryza sativa var. Kinmaze). The settings on record: for RS ratio: S627I mutant vs wild type. As to the method:
as §3, §4, §5
E. coli transformed with pGEX-2T(ALS-wild) constructed in Example 3(5), E. coli transformed with pGEX-2T(ALS-W548L mutant) constructed in Example 5, E. coli transformed with pGEX-2T(ALS-S627I mutant) constructed in Example 5, E. coli transformed with pGEX-2T(ALS P171H mutant) constructed in Example 6, E. coli transformed with pGEX-2T(ALS R172S mutant) constructed in Example 6, E. coli transformed with pGEX-2T(ALS P171H, R172S mutant) constructed in Example 7, E. coli transformed with pGEX-2T(ALS-P171H, W548L mutant) constructed in Example 8, E. coli transformed with pGEX-2T(ALS-P171H, S627I mutant) constructed in Example 8, and E. coli transformed with pGEX-2T(ALS-P171H, W548L, S627I mutant) constructed in Example 9 were respectively shake-cultured (pre-culture) at 27° C. in 2 ml of LB liquid medium containing ampicillin. These types of E. coli were respectively cultured in 250 ml of LB liquid medium containing ampicillin using 1 ml of the pre-culture solution. After culturing overnight, 1 mM IPTG was added to the media, and then culturing was performed for a further 3 to 4 hours, so that the expression of GST fusion protein was induced. In addition, the cells were stored at −80° C. after washing.
Preparation and purification of ALS from E. coli were performed by the following method. First, the pellet of the transformant E. coli stored at −80° C. was suspended in ALS extraction buffer (potassium phosphate buffer (pH 7.5) containing 30% glycerol and 0.5 mM MgCl2). Specifically, 2.5 ml of the buffer was added to the pellet obtained from 50 ml of the culture solution. The suspension was subjected to ultrasonication (Heat Systems-Ultrasonics, Sonicator W-225R, micro chip, output control 8, interval of approximately 1 second, twice (40 seconds each)), and subjected to centrifugation at 15000×g, 4° C. for 20 minutes, thereby obtaining the supernatant as a crude enzyme solution.
Herbicide sensitivity of the wild type ALS protein and that of mutant ALS protein were examined using the 9 types of crude enzyme solutions obtained in Example 10. Herbicide sensitivity test was performed according to procedures almost the same as those in Example 2. However, in this example, reaction temperature was 37° C., reaction time was 30 minutes, and 10 mM valine was added to the reaction solution to inhibit ALS activity derived from E. coli. Further, three types of herbicides, bispyribac-sodium, pyrithiobac-sodium, and pyriminobac, were used as PC herbicides; chlorsulfuron was used as a sulfonylurea herbicide; and imazaquin was used as an imidazolinon herbicide. […]

T1 sequence (Q6K2E8 whole entry W548L, form open): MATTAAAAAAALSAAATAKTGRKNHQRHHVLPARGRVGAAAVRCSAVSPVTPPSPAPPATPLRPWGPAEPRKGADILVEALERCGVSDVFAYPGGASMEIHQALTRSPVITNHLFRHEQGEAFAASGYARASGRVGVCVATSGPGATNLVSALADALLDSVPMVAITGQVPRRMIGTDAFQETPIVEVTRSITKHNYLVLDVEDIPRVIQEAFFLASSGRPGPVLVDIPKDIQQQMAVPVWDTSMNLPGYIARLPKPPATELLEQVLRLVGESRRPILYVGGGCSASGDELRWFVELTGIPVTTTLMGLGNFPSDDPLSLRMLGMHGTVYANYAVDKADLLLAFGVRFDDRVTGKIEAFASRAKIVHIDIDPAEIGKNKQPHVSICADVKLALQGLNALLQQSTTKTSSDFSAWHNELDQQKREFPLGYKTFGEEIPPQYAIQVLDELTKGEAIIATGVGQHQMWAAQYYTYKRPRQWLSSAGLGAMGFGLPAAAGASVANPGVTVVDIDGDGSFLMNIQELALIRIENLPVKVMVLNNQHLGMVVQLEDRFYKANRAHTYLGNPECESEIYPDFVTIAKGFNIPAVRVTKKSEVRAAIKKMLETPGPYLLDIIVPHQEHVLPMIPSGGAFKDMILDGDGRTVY
T2 sequence (Q6K2E8 44-644 S627I): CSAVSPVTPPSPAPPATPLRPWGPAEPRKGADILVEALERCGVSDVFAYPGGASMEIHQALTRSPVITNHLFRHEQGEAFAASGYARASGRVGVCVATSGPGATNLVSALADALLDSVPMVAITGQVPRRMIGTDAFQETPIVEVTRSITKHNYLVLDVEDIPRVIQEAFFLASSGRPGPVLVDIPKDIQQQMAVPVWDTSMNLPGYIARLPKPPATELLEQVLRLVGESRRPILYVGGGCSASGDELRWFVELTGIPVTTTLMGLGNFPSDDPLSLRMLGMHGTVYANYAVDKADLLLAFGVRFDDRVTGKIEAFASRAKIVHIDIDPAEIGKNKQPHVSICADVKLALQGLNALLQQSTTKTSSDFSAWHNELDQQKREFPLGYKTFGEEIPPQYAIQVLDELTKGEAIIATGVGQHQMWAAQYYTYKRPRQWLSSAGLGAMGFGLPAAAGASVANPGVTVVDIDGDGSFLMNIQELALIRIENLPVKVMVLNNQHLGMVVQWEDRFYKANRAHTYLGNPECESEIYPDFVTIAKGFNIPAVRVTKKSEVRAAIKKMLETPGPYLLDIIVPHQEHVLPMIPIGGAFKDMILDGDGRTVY

Turning to `COc1cc(OC)nc(Oc2cccc(Oc3nc(OC)cc(OC)n3)c2C(=O)O)n1` [bispyribac-sodium], the “RS ratio Vg” value in experiment [1] is 17.3. The values for the IC50 in experiment [2] and in experiment [3] were 97.2 nM and 260 nM, respectively. For the same molecule, in experiment [3], the RS ratio came out at 41.
The matching figures for `COc1nc(C)nc(NC(=O)NS(=O)(=O)c2ccccc2Cl)n1` [chlorsulfuron]: 28.6, 495 nM, 31 nM and 2.4.
Turning to `CC(C)C1(C)N=C(c2nc3ccccc3cc2C(=O)O)NC1=O` (centres unmarked) [imazaquin], the “RS ratio Vg” value in experiment [1] amounted to 29.8. Moreover, the IC50 in experiment [2] stood at 44100 nM; in experiment [3] it was 15000 nM.
